Data: patent publication EP0144996A2, “Substituted spiro pyridine derivatives, pharmaceutical compositions containing them and processes for the preparation of such compounds and compositions” (SCHERING CORPORATION, priority 1983, dated 1985)

How the values were obtained:
[1] = tested on: allergen-induced histamine release; test: Allergen-induced histamine release from sensitized guinea pig tissue; assay type: cell-based
[2] = tested on: anaphylactic bronchospasm; test: Inhibition of anaphylactic bronchospasm in sensitized guinea pigs with antigen-induced bronchoconstriction; assay type: in vivo; settings: oral dose of 5 mg/kg
Procedure: The anti-allergy method of this invention is identified by tests which measure a compound's inhibition of anaphylactic bronchospasm in sensitized guinea pigs having antigen-induced bronchoconstriction. […] The compounds are effective non-adrenergic, non-anticholinergic antianaphylactic agents. When administered orally they are active at doses from about 0.1 to 50 mg/kg of body weight; when administered parenterally, e.g., intravenously, the compounds are active at dosages of from about 0.01 to 5 mg/kg body weight; when administered by inhalation (aerosol or nebulizer) the compounds are active at dosages of about 0.1 to 5 mg per puff, and one to four puffs may be taken every 4 hours.

[3] = tested on: allergen-induced histamine release; test: Allergen-induced histamine release from sensitized human tissue; assay type: cell-based

`O=C1c2cccnc2N(c2ccccc2)C(=O)C12CCCCO2` (stereo not drawn) [1-phenyl-3',4',5',6'-tetrahydro-spiro[1,8-naphthyridine-3,2'-(2H)pyran]-2,4-dione] was tested, and the “inhibition of allergen-induced histamine release” value [1] was “inhibit allergen-induced histamine release”, the “inhibition of anaphylactic bronchospasms” value [2] was “inhibit anaphylactic bronchospasms” and the “inhibition of allergen-induced histamine release” value [3] was “inhibit allergen-induced histamine release”.
